The values below come from patent publication US20230272077A1, “PD-1 SIGNAL INHIBITOR COMBINATION THERAPY” (KYOTO UNIVERSITY, priority 2015, published 2023).

Entries after “also recorded” stand apart in the source; their conditions may differ.

Data set [1] concerns tumor cells. Nature of the data set: Phenotypic and transcription profile analysis of tumor cells from mice treated with reagent alone. Details: species or system mouse. As to conditions: tumor cells from mice treated with reagent alone in vivo. The source says: FIG. 12. […] After enzymatic digestion, tumor cells were sorted with a cell isolation kit capable of excluding non-tumor cells. The isolated tumor cells were further purified with Aria and used in the following experiments. b) Tumor cells were stained with antibodies targeting PD-L1, MHC class I, CD155 (ligand of TIGIT), and VISTA or with dyes for mitochondrial mass, membrane potential, and superoxide. c) Expression levels of genes associated with mitochondrial energy metabolism and apoptosis were examined using RT^2 profiler PCR Kit.
For analyzing draining lymph nodes, cells from axillary, brachial, and inguinal lymph nodes on the right side of tumor-inoculated mice were harvested and mixed. Averaged cell numbers per one lymph node were used as absolute cell numbers. For tumor analysis, tumor tissues were minced into 2- to 3-mm pieces with scissors and digested with collagenase type IV (Thermo Fisher Scientific) using a gentle MACS Dissociator (Miltenyi Biotec). The numbers of tumor cells per mg were used as absolute numbers. Tumor cells were isolated from digested tumor tissues using a Tumor Cell Isolation Kit, mouse (Miltenyi Biotec). This kit purifies tumor cells by excluding lymphocytes, red blood cells, fibroblasts, endothelial cells and tumor-associated stromal cells. The resultant tumor cell population was further isolated/purified with FACS Aria (BD Biosciences). […]

Data set [2] concerns CD8+ T cells. The method, then:
FIG. 6. […] Draining lymph node (DLN) cells on day 14 were stained with anti-CD8, -CD62L, and -CD44 antibodies, and then CD8^+ T cells were gated. P1 to P3 populations were defined based on the intensities of CD62L and CD44 (Upper). The absolute cell numbers of P1 to P3 in each group were calculated. […] Representative FACS profiles of P1 to P3 (Upper). Representative FACS profiles of the P3 population stained with each mitochondrial dye in each group (Middle). MFI of P1 to P3 stained with each dye was compared between treated groups. Colors correspond to the P1 to P3 populations. […] CD45^+ CD8^+ T cells were gated, and their CD62L and CD44 phenotypes were analyzed (Left). The frequencies of CD8^+ T cells in CD45^+ T cells and the absolute numbers of CD45^+ CD8^+ T cells were compared between groups (Right). Data represent the means±SEM of five mice. *p<0.05, **p<0.01, one-way ANOVA analysis. FACS data are representative of five mice in each group.
For analyzing draining lymph nodes, cells from axillary, brachial, and inguinal lymph nodes on the right side of tumor-inoculated mice were harvested and mixed. Averaged cell numbers per one lymph node were used as absolute cell numbers. For tumor analysis, tumor tissues were minced into 2- to 3-mm pieces with scissors and digested with collagenase type IV (Thermo Fisher Scientific) using a gentle MACS Dissociator (Miltenyi Biotec). The numbers of tumor cells per mg were used as absolute numbers. Tumor cells were isolated from digested tumor tissues using a Tumor Cell Isolation Kit, mouse (Miltenyi Biotec). This kit purifies tumor cells by excluding lymphocytes, red blood cells, fibroblasts, endothelial cells and tumor-associated stromal cells. The resultant tumor cell population was further isolated/purified with FACS Aria (BD Biosciences).
The following antibodies recognizing the indicated antigens were used: CD44 (1M7), CD45.2 (104), CD45.1 (A20), CD8 (53-6.7), CD62L (MEL-14), T-bet (4B/O) and IFN-7 (XMG1.2), MHC class I (AF6-88.5), CD155 (Tx56) and VISTA (MIH63) from BioLegend; p-AMPK (EPR5683) from Ancam; p-mTOR (MRRBY), Eomes (Danllmag) and PD-L1 (M1H5) from eBioscience. All flow cytometry experiments were performed on a FACS Canto II (BD Biosciences) and analyzed using FlowJo software (FLOWJO, LLC). For assessment of intracellular phosphoproteins, cells were permeabilized with 0.5% Triton-X and fixed with 1.5% PFA before staining. Determination of mitochondrial mass, membrane potential, mitochondrial superoxide and cellular ROS was performed using MitoTracker Green, Mito-Tracker Deep Red, MitoSOX Red, and CellROX Green reagents, respectively (all from Life Technologies). […]

With `N#CC(C#N)=NNc1ccc(OC(F)(F)F)cc1` [FCCP, carbonyl cyanide p-trifluoromethoxyphenylhydrazone], in data set [1], the “changes in immune-regulatory surface markers and transcriptional profiles of tumor cells” value is “did not show a significant difference; also recorded: little effect on tumor cells in vivo”. The “mitochondrial membrane potential and ROS in P3 population” value in data set [2] (MC38-bearing mice, FCCP combined with PD-L1 antibody) was “significantly augmented”. In addition, the “absolute number and proportion of effector CD8+ T cells (CD62L- CD44+, P3) in DLNs” value in data set [2] (MC38-bearing mice, PD-L1 antibody + FCCP vs anti-PD-L1 antibody alone) is “significantly increased; also recorded: Increase”. Further, the “numbers of naive T cells (P1) and central memory T cells (P2) in DLNs” value in data set [2] (MC38-bearing mice, PD-L1 antibody alone, or addition of FCCP) is given as “no further increase”. Further, the “toxic effects such as decrease in mitochondrial mass or fall in membrane potential” value in data set [2] (at the dose used (1.2 mg/kg)) is listed as “did not have toxic effects”.
